Earlier results as cited in publication PMC9369419 (International Journal of Molecular Sciences, 2022).

What was measured:
Settings in all cases: recombinant rat iGluR, mean ± SEM; cited from earlier work
[1] = molecular target: T1, GluK5 (Rattus norvegicus, UniProt Q63273)
T1 construct: made in house; host or cells: Sf9 insect cells (membranes)
T1 sequence (Q63273 15-979): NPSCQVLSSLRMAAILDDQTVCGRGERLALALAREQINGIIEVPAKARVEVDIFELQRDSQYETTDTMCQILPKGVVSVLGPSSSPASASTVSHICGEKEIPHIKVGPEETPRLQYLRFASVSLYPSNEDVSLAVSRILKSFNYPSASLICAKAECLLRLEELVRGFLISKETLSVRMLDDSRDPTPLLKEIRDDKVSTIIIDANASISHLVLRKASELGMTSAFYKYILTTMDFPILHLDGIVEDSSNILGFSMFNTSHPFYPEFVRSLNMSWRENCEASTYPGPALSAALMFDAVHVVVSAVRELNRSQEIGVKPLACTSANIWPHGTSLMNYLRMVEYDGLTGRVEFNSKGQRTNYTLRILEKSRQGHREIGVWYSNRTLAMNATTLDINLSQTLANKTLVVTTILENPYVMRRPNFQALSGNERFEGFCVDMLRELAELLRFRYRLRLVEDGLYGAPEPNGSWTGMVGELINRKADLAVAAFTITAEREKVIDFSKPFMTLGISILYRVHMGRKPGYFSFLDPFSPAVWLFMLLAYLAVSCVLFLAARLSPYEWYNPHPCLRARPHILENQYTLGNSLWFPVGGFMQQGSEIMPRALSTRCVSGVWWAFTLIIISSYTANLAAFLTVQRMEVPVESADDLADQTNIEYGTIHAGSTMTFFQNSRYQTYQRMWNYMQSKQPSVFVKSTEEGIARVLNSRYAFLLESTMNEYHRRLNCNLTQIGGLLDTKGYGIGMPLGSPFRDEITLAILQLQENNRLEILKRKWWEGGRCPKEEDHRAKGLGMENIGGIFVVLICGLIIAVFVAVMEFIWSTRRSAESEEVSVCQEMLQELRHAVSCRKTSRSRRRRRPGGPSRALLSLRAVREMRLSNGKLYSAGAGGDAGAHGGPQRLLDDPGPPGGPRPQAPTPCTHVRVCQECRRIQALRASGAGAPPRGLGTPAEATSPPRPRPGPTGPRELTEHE

[2] = molecular target: T2, GluK3 (Rattus norvegicus, UniProt P42264)
T2 construct: made in house; host or cells: Sf9 insect cells (membranes)
T2 sequence (P42264 32-919): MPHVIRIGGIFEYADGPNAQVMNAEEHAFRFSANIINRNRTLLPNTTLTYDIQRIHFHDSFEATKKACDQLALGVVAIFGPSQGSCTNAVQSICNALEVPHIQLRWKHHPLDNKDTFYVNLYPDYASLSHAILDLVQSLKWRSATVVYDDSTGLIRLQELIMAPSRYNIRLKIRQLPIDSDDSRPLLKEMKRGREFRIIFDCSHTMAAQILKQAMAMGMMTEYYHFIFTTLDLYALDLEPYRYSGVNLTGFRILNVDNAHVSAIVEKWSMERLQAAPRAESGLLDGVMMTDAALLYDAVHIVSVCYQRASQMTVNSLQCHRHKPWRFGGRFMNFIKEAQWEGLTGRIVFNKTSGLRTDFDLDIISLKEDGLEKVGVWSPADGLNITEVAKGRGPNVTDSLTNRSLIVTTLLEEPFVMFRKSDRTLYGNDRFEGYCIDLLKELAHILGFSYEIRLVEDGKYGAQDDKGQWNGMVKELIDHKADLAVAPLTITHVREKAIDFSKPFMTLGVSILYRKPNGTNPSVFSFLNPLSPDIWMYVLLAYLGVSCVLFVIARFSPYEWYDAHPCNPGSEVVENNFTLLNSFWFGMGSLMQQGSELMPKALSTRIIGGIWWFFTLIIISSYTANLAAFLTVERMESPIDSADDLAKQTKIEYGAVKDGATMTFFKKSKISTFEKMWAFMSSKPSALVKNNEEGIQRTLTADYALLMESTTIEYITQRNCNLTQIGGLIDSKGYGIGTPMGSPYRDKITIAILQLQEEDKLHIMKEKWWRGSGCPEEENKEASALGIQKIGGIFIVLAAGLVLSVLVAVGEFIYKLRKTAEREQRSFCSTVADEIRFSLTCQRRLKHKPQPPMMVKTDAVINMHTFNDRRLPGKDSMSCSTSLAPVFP

[3] = molecular target: T3, GluK1 (Rattus norvegicus, UniProt P22756)
T3 construct: made in house; host or cells: Sf9 insect cells (membranes)
T3 sequence (P22756 31-949): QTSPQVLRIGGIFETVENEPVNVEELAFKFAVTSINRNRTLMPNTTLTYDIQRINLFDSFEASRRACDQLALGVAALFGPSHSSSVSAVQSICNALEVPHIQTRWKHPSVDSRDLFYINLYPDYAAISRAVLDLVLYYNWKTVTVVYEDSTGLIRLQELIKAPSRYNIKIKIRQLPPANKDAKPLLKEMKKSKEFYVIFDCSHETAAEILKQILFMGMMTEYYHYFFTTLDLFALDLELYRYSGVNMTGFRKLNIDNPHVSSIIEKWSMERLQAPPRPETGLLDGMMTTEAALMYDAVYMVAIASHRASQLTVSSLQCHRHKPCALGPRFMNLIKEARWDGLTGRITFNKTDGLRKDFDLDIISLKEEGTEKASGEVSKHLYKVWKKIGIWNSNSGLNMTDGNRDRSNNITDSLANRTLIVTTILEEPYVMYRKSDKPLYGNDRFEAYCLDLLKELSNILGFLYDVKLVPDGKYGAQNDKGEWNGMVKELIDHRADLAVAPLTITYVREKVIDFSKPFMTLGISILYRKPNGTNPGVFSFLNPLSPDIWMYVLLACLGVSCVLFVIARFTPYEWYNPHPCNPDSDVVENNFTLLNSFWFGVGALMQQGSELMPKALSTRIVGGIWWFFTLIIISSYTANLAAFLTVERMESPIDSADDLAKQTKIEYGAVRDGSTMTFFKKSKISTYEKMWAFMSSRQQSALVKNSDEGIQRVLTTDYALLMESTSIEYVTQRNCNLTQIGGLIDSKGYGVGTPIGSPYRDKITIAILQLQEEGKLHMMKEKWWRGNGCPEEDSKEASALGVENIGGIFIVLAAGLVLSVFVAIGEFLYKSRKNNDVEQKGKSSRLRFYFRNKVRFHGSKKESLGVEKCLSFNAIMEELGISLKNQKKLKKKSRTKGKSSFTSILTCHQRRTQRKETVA

[4] = molecular target: T4, GluK2 (Rattus norvegicus, UniProt P42260)
T4 construct: made in house; host or cells: Sf9 insect cells (membranes)
T4 sequence (P42260 32-908): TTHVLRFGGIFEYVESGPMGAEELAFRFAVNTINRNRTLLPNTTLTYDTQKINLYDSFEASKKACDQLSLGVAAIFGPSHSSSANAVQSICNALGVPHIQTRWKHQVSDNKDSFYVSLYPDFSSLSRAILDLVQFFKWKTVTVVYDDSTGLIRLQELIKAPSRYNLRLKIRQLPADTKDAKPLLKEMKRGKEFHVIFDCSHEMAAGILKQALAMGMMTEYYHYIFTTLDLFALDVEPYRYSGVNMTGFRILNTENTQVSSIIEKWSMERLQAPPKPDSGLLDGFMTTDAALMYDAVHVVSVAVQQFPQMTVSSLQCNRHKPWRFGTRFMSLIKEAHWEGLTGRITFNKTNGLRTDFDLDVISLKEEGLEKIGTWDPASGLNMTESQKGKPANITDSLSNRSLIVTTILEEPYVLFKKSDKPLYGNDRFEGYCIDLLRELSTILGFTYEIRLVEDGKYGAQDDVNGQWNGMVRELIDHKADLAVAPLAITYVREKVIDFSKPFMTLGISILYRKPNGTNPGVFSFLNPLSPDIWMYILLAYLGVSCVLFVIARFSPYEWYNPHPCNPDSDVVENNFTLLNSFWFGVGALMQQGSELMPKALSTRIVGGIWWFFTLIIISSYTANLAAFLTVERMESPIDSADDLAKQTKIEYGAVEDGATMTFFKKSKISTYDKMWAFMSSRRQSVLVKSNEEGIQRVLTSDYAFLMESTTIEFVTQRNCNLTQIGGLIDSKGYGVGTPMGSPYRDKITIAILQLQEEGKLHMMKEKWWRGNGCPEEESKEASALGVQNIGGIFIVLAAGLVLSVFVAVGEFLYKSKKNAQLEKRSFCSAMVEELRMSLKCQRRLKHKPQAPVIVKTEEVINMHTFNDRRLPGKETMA

[5] = molecular target: T5, GluA2 (Rattus norvegicus, UniProt P19491)
T5 construct: made in house; host or cells: Sf9 insect cells (membranes)
T5 sequence (P19491 22-883): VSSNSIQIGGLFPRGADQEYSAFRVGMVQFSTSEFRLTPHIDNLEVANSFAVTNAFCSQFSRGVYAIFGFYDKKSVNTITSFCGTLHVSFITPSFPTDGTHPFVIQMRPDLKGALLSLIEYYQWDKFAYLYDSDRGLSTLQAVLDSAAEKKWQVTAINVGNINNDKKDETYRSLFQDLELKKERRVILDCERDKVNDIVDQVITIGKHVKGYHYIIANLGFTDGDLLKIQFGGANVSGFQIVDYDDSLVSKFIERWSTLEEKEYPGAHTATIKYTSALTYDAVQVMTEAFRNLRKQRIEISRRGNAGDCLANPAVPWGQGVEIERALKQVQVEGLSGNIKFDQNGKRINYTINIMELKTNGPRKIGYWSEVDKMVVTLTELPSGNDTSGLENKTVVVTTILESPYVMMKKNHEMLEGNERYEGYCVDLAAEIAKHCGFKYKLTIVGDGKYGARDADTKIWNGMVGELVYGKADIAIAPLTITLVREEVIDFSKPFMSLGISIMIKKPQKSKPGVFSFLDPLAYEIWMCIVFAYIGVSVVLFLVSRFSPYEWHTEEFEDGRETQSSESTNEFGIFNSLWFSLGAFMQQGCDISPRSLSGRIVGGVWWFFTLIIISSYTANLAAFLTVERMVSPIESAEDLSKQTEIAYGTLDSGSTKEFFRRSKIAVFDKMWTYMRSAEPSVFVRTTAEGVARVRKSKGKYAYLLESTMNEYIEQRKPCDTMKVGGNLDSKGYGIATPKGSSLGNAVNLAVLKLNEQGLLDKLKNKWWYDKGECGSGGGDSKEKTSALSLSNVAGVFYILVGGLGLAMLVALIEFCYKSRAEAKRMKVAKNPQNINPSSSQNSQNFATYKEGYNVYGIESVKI

In the case of `O=c1[nH]c2cc([N+](=O)[O-])c([N+](=O)[O-])cc2[nH]c1=O` [DNQX], the Ki [1] is listed as 7.1 ± 0.9 µM, the Ki [2] is listed as 0.36 ± 0.03 µM and the Ki [3] is listed as 0.65 ± 0.03 µM. For the same compound, the Ki [4] was 2.1 ± 0.3 µM.
In the case of `O=C(Nn1c(=O)c(=O)[nH]c2cc(C#Cc3ccccc3)ccc21)c1ccccc1` [Compound 1, N-(2,3-dioxo-6-(phenylethynyl)-3,4-dihydroquinoxalin-1(2H)-yl)benzamide], the Ki [1] is listed as > 100 µM, the Ki [3] is listed as > 100 µM and the Ki [5] is listed as 24 ± 6 µM. For the same compound, the Ki [4] was ~100 µM.
